# “And” between values parts separate entries of the source, which are not always exact repeats. Identical values can stand only once. Like-named read-outs stand apart in the source and are kept apart here.
# Tests used:
# Assay in all cases: Kinase inhibitor specificity profiling (Reaction Biology Corporation)
# Type in all cases: biochemical
# Parameters in all cases: % Enzyme Activity (relative to DMSO controls): concentration or dose not given beside the values
# [1] = biological target: T1, panel of 370 protein kinases (Homo sapiens, UniProt Q16584); details: kinase MLK3/MAP3K11
# T1 construct: purchased Reaction Biology Corporation (assay service)
# [2] = biological target: T2, panel of 370 protein kinases (Homo sapiens, UniProt P06493); details: 2 h, read-out: % Enzyme Activity (relative to DMSO controls)
# T2 construct: purchased Reaction Biology Corporation (assay service)
# [3] = biological target: T3, panel of 370 protein kinases (Homo sapiens, UniProt O94806); details: 2 h, kinase PKCnu/PRKD3; read-out: % Enzyme Activity (relative to DMSO controls)
# T3 construct: purchased Reaction Biology Corporation (assay service)
# [4] = biological target: T4, panel of 370 protein kinases (Homo sapiens, UniProt Q92918); details: 2 h, kinase HPK1/MAP4K1; read-out: % Enzyme Activity (relative to DMSO controls)
# T4 construct: purchased Reaction Biology Corporation (assay service)
# [5] = biological target: T5, panel of 370 protein kinases (Homo sapiens, UniProt Q9Y2K2); details: kinase SIK3
# T5 construct: purchased Reaction Biology Corporation (assay service)
# [6] = biological target: T6, panel of 370 protein kinases (Homo sapiens, UniProt Q09013); details: 2 h, kinase DMPK; read-out: % Enzyme Activity (relative to DMSO controls)
# T6 construct: purchased Reaction Biology Corporation (assay service)
# [7] = biological target: T7, panel of 370 protein kinases (Homo sapiens, UniProt P08631); details: 2 h, kinase HCK; read-out: % Enzyme Activity (relative to DMSO controls)
# T7 construct: purchased Reaction Biology Corporation (assay service)
# [8] = biological target: T8, panel of 370 protein kinases (Homo sapiens, UniProt P25098); details: 2 h, kinase GRK2; read-out: % Enzyme Activity (relative to DMSO controls)
# T8 construct: purchased Reaction Biology Corporation (assay service)
# [9] = biological target: T9, panel of 370 protein kinases (Homo sapiens, UniProt P15735); details: 2 h, kinase PHKg2; read-out: % Enzyme Activity (relative to DMSO controls)
# T9 construct: purchased Reaction Biology Corporation (assay service)
# [10] = biological target: T10, panel of 370 protein kinases (Homo sapiens, UniProt O14733); details: kinase MKK7
# T10 construct: purchased Reaction Biology Corporation (assay service)
# [11] = biological target: T11, panel of 370 protein kinases (Homo sapiens, UniProt Q9P1W9); details: 2 h, kinase PIM2; read-out: % Enzyme Activity (relative to DMSO controls)
# T11 construct: purchased Reaction Biology Corporation (assay service)
# [12] = biological target: T12, panel of 370 protein kinases (Homo sapiens, UniProt Q9H2X6); details: 2 h, kinase HIPK2; read-out: % Enzyme Activity (relative to DMSO controls)
# T12 construct: purchased Reaction Biology Corporation (assay service)
# [13] = biological target: T13, panel of 370 protein kinases (Homo sapiens, UniProt P41279); details: 2 h, kinase COT1/MAP3K8; read-out: % Enzyme Activity (relative to DMSO controls)
# T13 construct: purchased Reaction Biology Corporation (assay service)
# [14] = biological target: T14, panel of 370 protein kinases (Homo sapiens, UniProt P80192); details: 2 h, kinase MLK1/MAP3K9; read-out: % Enzyme Activity (relative to DMSO controls)
# T14 construct: purchased Reaction Biology Corporation (assay service)
# [15] = biological target: T15, panel of 370 protein kinases (Homo sapiens, UniProt P51957); details: 2 h, kinase NEK4; read-out: % Enzyme Activity (relative to DMSO controls)
# T15 construct: purchased Reaction Biology Corporation (assay service)
# [16] = biological target: T16, panel of 370 protein kinases (Homo sapiens, UniProt Q9UKI8); details: 2 h, kinase TLK1; read-out: % Enzyme Activity (relative to DMSO controls)
# T16 construct: purchased Reaction Biology Corporation (assay service)
# [17] = biological target: T17, panel of 370 protein kinases (Homo sapiens, UniProt Q12852); details: kinase DLK/MAP3K12
# T17 construct: purchased Reaction Biology Corporation (assay service)
# [18] = biological target: T18, panel of 370 protein kinases (Homo sapiens, UniProt Q6XUX3); details: 2 h, kinase RIPK5; read-out: % Enzyme Activity (relative to DMSO controls)
# T18 construct: purchased Reaction Biology Corporation (assay service)
# [19] = biological target: T19, panel of 370 protein kinases (Homo sapiens, UniProt P42681); details: 2 h, kinase TXK; read-out: % Enzyme Activity (relative to DMSO controls)
# T19 construct: purchased Reaction Biology Corporation (assay service)
# [20] = biological target: T20, panel of 370 protein kinases (Homo sapiens, UniProt P20794); details: 2 h, kinase MAK; read-out: % Enzyme Activity (relative to DMSO controls)
# T20 construct: purchased Reaction Biology Corporation (assay service)
# [21] = biological target: T21, panel of 370 protein kinases (Homo sapiens, UniProt Q8WTQ7); details: 2 h, kinase GRK7; read-out: % Enzyme Activity (relative to DMSO controls)
# T21 construct: purchased Reaction Biology Corporation (assay service)
# [22] = biological target: T22, panel of 370 protein kinases (Homo sapiens, UniProt O75385); details: kinase ULK1
# T22 construct: purchased Reaction Biology Corporation (assay service)
# T22 sequence (O75385 whole entry): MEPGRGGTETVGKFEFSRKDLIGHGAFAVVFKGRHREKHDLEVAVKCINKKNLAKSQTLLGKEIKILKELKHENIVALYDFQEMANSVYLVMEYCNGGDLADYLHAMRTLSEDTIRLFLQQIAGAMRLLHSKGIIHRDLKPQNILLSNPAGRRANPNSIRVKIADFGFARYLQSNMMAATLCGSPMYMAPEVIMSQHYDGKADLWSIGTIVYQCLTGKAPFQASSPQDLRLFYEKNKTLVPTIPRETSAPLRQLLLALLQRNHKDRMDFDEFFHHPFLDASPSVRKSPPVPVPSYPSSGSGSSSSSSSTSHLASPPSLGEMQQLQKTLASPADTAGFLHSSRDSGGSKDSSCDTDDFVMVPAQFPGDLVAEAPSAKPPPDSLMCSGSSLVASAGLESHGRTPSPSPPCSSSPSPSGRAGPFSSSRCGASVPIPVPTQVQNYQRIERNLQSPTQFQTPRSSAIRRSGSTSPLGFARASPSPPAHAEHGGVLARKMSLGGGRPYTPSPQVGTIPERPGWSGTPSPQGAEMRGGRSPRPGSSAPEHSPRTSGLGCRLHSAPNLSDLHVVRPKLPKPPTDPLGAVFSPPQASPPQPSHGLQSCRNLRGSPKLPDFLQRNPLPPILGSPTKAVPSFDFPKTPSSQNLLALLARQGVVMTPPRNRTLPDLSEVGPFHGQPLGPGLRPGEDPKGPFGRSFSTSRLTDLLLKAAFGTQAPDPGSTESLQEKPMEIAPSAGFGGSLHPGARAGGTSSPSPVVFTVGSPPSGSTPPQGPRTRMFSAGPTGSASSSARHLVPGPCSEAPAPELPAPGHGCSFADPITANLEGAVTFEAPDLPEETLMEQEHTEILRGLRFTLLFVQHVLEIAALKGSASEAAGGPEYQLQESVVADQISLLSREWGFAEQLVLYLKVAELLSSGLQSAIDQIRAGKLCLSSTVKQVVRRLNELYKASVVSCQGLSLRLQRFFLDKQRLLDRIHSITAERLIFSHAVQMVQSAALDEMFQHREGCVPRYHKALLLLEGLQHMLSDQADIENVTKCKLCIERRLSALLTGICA
# T2 sequence (P06493 whole entry): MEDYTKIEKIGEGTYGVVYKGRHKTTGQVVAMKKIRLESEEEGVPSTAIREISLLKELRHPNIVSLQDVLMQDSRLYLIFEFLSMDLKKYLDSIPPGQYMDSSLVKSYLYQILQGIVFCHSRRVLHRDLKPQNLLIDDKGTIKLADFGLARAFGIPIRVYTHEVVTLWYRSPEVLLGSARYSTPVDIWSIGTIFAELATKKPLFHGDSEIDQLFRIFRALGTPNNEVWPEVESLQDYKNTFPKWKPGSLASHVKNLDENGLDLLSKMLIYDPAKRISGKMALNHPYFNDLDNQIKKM
# T10 sequence (O14733 whole entry): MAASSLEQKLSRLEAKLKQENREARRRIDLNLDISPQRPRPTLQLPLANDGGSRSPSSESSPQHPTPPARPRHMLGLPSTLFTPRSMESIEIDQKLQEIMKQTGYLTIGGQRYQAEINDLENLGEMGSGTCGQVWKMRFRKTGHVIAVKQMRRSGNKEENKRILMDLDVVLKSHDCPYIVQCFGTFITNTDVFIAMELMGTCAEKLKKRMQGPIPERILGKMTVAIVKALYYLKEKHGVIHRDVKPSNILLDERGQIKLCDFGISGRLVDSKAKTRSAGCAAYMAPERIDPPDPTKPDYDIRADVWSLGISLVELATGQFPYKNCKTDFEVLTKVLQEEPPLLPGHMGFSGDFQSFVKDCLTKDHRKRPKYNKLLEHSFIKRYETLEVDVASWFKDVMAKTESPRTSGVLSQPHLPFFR
# T17 sequence (Q12852 whole entry): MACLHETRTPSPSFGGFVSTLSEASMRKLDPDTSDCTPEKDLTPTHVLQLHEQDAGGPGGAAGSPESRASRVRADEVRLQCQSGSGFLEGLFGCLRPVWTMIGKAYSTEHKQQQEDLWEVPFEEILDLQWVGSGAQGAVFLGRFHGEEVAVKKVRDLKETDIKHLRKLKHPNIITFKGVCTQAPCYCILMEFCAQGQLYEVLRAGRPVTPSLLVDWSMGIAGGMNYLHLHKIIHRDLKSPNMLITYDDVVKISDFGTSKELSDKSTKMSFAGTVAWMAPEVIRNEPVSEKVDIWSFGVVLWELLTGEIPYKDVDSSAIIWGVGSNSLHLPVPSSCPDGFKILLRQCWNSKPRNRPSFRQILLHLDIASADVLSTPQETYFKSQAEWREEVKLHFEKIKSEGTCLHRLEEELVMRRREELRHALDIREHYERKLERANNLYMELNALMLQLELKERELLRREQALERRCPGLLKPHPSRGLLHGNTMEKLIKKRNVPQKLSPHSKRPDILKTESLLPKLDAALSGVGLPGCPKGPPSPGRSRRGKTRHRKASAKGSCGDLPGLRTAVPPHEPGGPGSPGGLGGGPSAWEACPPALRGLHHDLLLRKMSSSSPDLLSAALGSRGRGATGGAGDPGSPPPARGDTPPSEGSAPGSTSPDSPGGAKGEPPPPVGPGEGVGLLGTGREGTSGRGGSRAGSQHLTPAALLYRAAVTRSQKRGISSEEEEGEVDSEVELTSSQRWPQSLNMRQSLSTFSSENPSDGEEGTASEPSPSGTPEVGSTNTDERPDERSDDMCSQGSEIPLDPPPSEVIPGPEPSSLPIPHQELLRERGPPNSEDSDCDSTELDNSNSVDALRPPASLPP
# T5 sequence (Q9Y2K2 whole entry): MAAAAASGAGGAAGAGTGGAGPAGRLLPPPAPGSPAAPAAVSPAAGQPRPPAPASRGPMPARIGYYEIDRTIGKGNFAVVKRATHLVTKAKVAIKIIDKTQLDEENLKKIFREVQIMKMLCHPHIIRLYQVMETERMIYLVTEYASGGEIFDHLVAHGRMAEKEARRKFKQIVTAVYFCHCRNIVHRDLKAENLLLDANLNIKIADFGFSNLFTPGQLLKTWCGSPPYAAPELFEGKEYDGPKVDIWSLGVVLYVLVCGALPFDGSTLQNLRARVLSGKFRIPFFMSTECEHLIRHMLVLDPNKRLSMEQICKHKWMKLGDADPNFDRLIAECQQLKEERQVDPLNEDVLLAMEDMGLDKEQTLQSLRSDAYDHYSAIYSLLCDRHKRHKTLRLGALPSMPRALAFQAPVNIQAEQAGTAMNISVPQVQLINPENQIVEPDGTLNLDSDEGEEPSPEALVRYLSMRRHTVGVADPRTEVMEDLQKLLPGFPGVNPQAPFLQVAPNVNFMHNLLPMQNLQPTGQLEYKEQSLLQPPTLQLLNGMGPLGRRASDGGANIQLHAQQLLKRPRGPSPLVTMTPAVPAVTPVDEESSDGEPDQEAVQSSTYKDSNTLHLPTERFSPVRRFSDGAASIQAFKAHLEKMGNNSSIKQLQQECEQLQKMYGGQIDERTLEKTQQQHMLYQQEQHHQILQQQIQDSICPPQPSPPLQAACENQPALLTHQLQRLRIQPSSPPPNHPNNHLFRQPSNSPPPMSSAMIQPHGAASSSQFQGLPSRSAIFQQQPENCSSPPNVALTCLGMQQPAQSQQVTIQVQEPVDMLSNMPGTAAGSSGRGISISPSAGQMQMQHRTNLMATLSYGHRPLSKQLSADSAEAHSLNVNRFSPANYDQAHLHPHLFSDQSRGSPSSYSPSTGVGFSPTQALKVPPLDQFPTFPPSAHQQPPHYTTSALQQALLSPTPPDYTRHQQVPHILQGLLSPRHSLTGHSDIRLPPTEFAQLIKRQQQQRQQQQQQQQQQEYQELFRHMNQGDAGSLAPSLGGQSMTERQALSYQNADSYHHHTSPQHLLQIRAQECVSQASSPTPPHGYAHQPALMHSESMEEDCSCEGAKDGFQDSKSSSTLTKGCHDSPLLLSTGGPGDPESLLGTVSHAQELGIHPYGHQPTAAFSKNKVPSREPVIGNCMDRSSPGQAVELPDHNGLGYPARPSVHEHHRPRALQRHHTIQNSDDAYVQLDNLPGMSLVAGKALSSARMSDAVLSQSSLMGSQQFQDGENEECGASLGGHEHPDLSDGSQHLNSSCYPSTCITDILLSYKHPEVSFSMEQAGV
# T1 sequence (Q16584 whole entry): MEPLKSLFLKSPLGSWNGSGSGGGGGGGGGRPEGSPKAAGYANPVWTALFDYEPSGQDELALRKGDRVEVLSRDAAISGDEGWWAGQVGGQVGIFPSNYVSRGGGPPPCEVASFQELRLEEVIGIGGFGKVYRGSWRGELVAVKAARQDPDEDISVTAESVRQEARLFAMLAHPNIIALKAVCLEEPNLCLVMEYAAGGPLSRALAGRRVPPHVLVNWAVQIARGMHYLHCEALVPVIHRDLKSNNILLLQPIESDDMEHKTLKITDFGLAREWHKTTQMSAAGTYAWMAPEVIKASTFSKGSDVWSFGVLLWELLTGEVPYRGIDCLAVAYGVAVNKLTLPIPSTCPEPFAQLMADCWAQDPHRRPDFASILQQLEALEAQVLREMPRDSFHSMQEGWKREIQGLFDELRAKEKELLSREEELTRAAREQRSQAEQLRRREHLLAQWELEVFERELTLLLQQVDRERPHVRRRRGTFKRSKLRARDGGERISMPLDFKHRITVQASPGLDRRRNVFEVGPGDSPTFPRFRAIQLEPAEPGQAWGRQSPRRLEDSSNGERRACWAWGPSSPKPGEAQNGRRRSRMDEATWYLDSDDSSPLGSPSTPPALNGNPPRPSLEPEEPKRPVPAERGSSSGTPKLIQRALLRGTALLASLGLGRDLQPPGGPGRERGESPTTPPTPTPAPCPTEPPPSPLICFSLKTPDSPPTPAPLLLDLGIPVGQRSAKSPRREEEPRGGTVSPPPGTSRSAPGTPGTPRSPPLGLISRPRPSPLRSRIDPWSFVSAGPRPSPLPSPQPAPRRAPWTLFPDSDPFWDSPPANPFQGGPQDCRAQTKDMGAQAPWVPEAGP
structure (smiles),measurement,setting,value
CCN1CCN(C(=O)c2ccc(Nc3ncc(F)c(-c4ccc5nc(N(C)C)sc5c4)n3)nc2)CC1 [YK-2-69],% Enzyme Activity (relative to DMSO controls),[1],97.08% and 87.23%
same,remaining activity at 1 µM,[2]; kinase CDK1/cyclin A,116%
same,remaining activity at 1 µM,[2]; kinase CDK1/cyclin B,119%
same,remaining activity at 1 µM,[2]; kinase CDK1/cyclin E,103%
same,remaining activity at 1 µM,[3],75.6%
same,remaining activity at 1 µM,[4],104%
same,% Enzyme Activity (relative to DMSO controls),[5],100.12% and 97.59%
same,remaining activity at 1 µM,[6],95.8%
same,remaining activity at 1 µM,[7],105%
same,remaining activity at 1 µM,[8],112%
same,remaining activity at 1 µM,[9],97.9%
same,% Enzyme Activity (relative to DMSO controls),[10],97.65% and 97.50%
same,remaining activity at 1 µM,[11],90.4%
same,remaining activity at 1 µM,[12],28.1%
same,remaining activity at 1 µM,[13],96.1%
same,remaining activity at 1 µM,[14],111%
same,remaining activity at 1 µM,[15],112%
same,remaining activity at 1 µM,[16],98.4%
same,% Enzyme Activity (relative to DMSO controls),[17],98.52% and 93.92%
same,remaining activity at 1 µM,[18],111%
same,remaining activity at 1 µM,[19],95.6%
same,remaining activity at 1 µM,[20],71.7%
same,remaining activity at 1 µM,[21],102%
same,% Enzyme Activity (relative to DMSO controls),[22],101.30% and 99.93%
